Laboratory results taken from patent US20250050042A1, “DRY POWDER FORMULATIONS FILLED IN AN INHALER WITH IMPROVED RESISTANCE TO HUMIDITY” (CHIESI FARMACEUTICI S.P.A., priority 2021, published 2025).
Counter-ions that a name gives are not always drawn.

Tests used:
[1] = Aerosol performance by Next Generation Impactor (Example 4); format: physicochemical; set-up: MDD: unit not given beside the values; conditions: mean; for FPM: particles equal to or lower than 5.0 micron
[2] = In-use stability of aerosol performance (FPM drop, NGI) on storage at 30° C. and 75% relative humidity; format: physicochemical; conditions: in use at 30° C./75%
[3] = Sample A (coarse lactose batch A)
[4] = Sample A (coarse lactose batch A, tapped density 0.72)
[5] = Sample B (coarse lactose batch B)
[6] = Sample B (coarse lactose batch B, tapped density 0.69)
[7] = second block of Table 1 without sub-heading (co-micronization formulation), T = 0 + 1 M
[8] = second block of Table 1 without sub-heading (co-micronization formulation), T = 0 + 2 M
[9] = second block of Table 1 without sub-heading (co-micronization formulation), T = 0 + 3 M
[10] = simple mixing process formulation, T = 0 + 1 M, mean values
[11] = simple mixing process formulation, T = 0 + 1.5 M, mean values
[12] = simple mixing process formulation, T = 0 + 2 M, mean values
[13] = simple mixing process formulation, T = 0 + 3 M, mean values

| DD [1, 3] | FPF [1, 3] [%] | MDD [1, 3] | FPM [1, 4] | DD [1, 5] | FPF [1, 5] [%] | MDD [1, 5] | FPM [1, 6] | FPM drop (%) [2, 7] [%] | FPM drop (%) [2, 8] [%] | FPM drop (%) [2, 9] [%] | FPM drop (%) [2, 10] [%] | FPM drop (%) [2, 11] [%] | FPM drop (%) [2, 12] [%] | FPM drop (%) [2, 13] [%] | SMILES |
| --- | --- | --- | --- | --- | --- | --- | --- | --- | --- | --- | --- | --- | --- | --- | --- |
| 90.4 | 45 | 92.4 | 41.6 | 88.6 | 33.4 | 88.5 | 29.5 | −10.4 | −20.3 | −19.6 | −22.1 | −30.5 | −26.3 | −30.2 | CCC(=O)OCC(=O)[C@@]1(OC(=O)CC)[C@@H](C)C[C@H]2[C@@H]3CCC4=CC(=O)C=C[C@]4(C)[C@@]3(Cl)[C@@H](O)C[C@@]21C [BDP, (8S,9R,10S,11S,13S,14S,16S,17R)-9-chloro-11-hydroxy-10,13,16-trimethyl-3-oxo-17-[2-(propionyloxy)acetyl]-6,7,8,9,10,11,12,13,14,15,16,17-dodecahydro-3H-cyclopenta[a]phenanthren-17-yl propionate] |
| 11.4 | 41.3 | 11.7 | 4.8 | 11.0 | 30.9 | 11.1 | 3.4 | −7.8 | −19.1 | −20.7 | −24.5 | −36.5 | −29.5 | −33.1 | C[N+]1(C)CCC(OC(=O)C(O)(c2ccccc2)C2CCCC2)C1 (centres unmarked) [GB, glycopyrronium bromide] |

| SMILES | DD [1, 3] | FPF [1, 3] [%] | MDD [1, 3] | FPM [1, 4] | DD [1, 5] | FPF [1, 5] [%] | MDD [1, 5] | FPM [1, 6] | FPM drop (%) [2, 7] [%] | FPM drop (%) [2, 8] [%] | FPM drop (%) [2, 9] [%] | FPM drop (%) [2, 10] [%] | FPM drop (%) [2, 11] [%] | FPM drop (%) [2, 12] [%] | FPM drop (%) [2, 13] [%] |
| --- | --- | --- | --- | --- | --- | --- | --- | --- | --- | --- | --- | --- | --- | --- | --- |
| COc1ccc(CC(C)NCC(O)c2ccc(O)c(NC=O)c2)cc1 (centres unmarked) [FF, formoterol fumarate dihydrate] | 5.6 | 48.4 | 5.6 | 2.7 | 5.4 | 36.8 | 5.4 | 2.0 |  |  |  |  |  |  |  |
